Experiments:
[1] = target: T1, Recombinant mouse CD38 (Mus musculus, UniProt P56528); test: Mouse CD38 hydrolase assay (fluorescence-based, ε-NAD substrate); format: biochemical; conditions: recombinant mouse CD38 0.4 nM, 12 μM ε-NAD, 30 min preincubation at 25° C.
T1 sequence (P56528 1-304): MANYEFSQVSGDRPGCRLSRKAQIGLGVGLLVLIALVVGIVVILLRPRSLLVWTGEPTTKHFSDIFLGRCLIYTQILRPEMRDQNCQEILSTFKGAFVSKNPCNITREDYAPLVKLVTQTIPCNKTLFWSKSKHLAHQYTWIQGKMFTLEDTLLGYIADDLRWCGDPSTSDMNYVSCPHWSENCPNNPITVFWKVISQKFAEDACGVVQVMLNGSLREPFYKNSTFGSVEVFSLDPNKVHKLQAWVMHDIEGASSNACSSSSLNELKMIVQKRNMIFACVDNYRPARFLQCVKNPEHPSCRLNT
Description: The ability of test compounds to inhibit mouse CD38 hydrolase activity was measured in a fluorescence-based assay using non-physiological NAD^+ substrate analogue 1,N^6-etheno NAD^+ (&-NAD). Recombinant mouse CD38 (0.4 nM) was preincubated with test compounds in 384-well black microplates for 30 min at 25° C. in PBS (—Ca^2+/Mg^2+) containing 0.005% BSA (pH 7.4). CD38 hydrolase activity was initiated by addition of 12 μM ε-NAD, which yields the fluorescent product 1,N^6-etheno ADP-ribose. Formation of fluorescent product was followed using ClarioStar Plus (BMG) microplate reader by reading fluorescence (excitation λ=300 nm; emission λ=410 nm) at two time points, one immediately after substrate addition (t=0) and one at 6 min (t=6).
Data was analysed by subtracting the values detected at t=0 from t=6 to correct for variation in baseline fluorescence. Fluorescence values were converted to percent inhibition using the average of high signal (CD38 and ε-NAD) and low signal (CD38 and ε-NAD in the presence of a tool CD38 inhibitor) control wells. IC50 values were determined from a 10-point, halflog concentration response curve with a four-parameter logistic equation.

[2] = target: T2, Recombinant human CD38 (Homo sapiens, UniProt P28907); test: Human CD38 hydrolase assay (fluorescence-based, ε-NAD substrate); format: biochemical; conditions: recombinant human CD38 0.8 nM, 4 μM ε-NAD, 30 min preincubation at 25° C.
T2 sequence (P28907 1-300): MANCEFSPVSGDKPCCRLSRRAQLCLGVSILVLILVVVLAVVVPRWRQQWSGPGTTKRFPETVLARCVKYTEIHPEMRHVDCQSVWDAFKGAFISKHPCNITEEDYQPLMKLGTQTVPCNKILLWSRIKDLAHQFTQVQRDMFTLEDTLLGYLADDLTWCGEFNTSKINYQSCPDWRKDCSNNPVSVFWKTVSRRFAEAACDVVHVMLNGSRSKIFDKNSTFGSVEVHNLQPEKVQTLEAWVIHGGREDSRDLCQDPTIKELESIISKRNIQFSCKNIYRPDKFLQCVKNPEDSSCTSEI
Description: The ability of test compounds to inhibit human CD38 hydrolase activity was measured in a fluorescence-based assay using non-physiological NAD^+ substrate analogue 1,N^6-etheno NAD^+ (ε-NAD). Recombinant human CD38 (0.8 nM) was preincubated with test compounds in 384-well black microplates for 30 min at 25° C. in PBS (—Ca^2+/Mg^2+) containing 0.005% BSA (pH 7.4). CD38 hydrolase activity was initiated by addition of 4 μM ε-NAD, which yields the fluorescent product 1,N^6-etheno ADP-ribose. Formation of fluorescent product was followed using ClarioStar Plus (BMG) microplate reader by reading fluorescence (excitation λ=300 nm; emission λ=410 nm) at two time points, one immediately after substrate addition (t=0) and one at 10 min (t=10). Data was analysed by subtracting the values detected at t=0 from t=10 to correct for variation in baseline fluorescence. Fluorescence values were converted to percent inhibition using the average of high signal (CD38 and ε-NAD) and low signal (CD38 and ε-NAD in the presence of a tool CD38 inhibitor) control wells. IC50 values were determined from a 10-point, half log concentration response curve with a four-parameter logistic equation.

Row | SMILES | IC50 [1] | IC50 [2]
1 | CC(C)(N[C@H]1CC[C@H](NC(=O)c2cn3ncnc3c(-n3ccnc3)n2)CC1)C(F)(F)F [Example 53, 8-(1H-imidazol-1-yl)-N-((1r,4r)-4-((1,1,1-trifluoro-2-methylpropan-2-yl)amino)cyclohexyl)-[1,2,4]triazolo[1,5-a]pyrazine-6-carboxamide] | ≤ 40 nM | ≤ 1000 nM
2 | O=C(N[C@H]1CC[C@H](NCC(F)F)CC1)c1cn2ncnc2c(-n2ccnc2)n1 [Example 52, N-((1r,4r)-4-((2,2-difluoroethyl)amino)cyclohexyl)-8-(1H-imidazol-1-yl)-[1,2,4]triazolo[1,5-a]pyrazine-6-carboxamide] | ≤ 40 nM | ≤ 100 nM
3 | O=C(N[C@H]1CC[C@H](NCC(F)(F)F)CC1)c1cc2ncnn2c(-n2ccnc2)n1 [Example 60, 5-(1H-imidazol-1-yl)-N-((1r,4r)-4-((2,2,2-trifluoroethyl)amino)cyclohexyl)-[1,2,4]triazolo[1,5-c]pyrimidine-7-carboxamide] |  | ≤ 1000 nM
4 | O=C(N[C@H]1CC[C@H](NCC(F)(F)F)CC1)c1nc(-c2cncs2)nn2cccc12 [Example 30, 2-(thiazol-5-yl)-N-((1r,4r)-4-((2,2,2-trifluoroethyl)amino)cyclohexyl)pyrrolo[2,1-f][1,2,4]triazine-4-carboxamide] | ≤ 40 nM | ≤ 100 nM
5 | O=C(N[C@H]1CC[C@H](NCC(F)(F)F)CC1)c1nc(-n2ccnc2)cn2ncnc12 [Example 59, 6-(1H-imidazol-1-yl)-N-((1r,4r)-4-((2,2,2-trifluoroethyl)amino)cyclohexyl)-[1,2,4]triazolo[1,5-a]pyrazine-8-carboxamide] | ≤ 40 nM | ≤ 40 nM
6 | O=C(N[C@H]1CC[C@H](N2CC[C@@H](F)C2)CC1)c1nc(-n2ccnc2)c2cccn2n1 [Example 28, N-((1R,4r)-4-((R)-3-fluoropyrrolidin-1-yl)cyclohexyl)-4-(1H-imidazol-1-yl)pyrrolo[2,1-f][1,2,4]triazine-2-carboxamide] | ≤ 40 nM | ≤ 10000 nM
7 | O=C(N[C@H]1CC[C@H](NCC(F)(F)F)CC1)c1cc2cccnc2c(-n2ccnc2)n1 [Example 6, 8-(1H-imidazol-1-yl)-N-((1r,4r)-4-((2,2,2-trifluoroethyl)amino)cyclohexyl)-1,7-naphthyridine-6-carboxamide] |  | ≤ 10000 nM
8 | O=C(N[C@H]1CC[C@H](NCC(F)(F)F)CC1)c1nc(-c2cncn2CCO)nn2cccc12 [Example 18, 2-(1-(2-hydroxyethyl)-1H-imidazol-5-yl)-N-((1r,4r)-4-((2,2,2-trifluoroethyl)amino)cyclohexyl)pyrrolo[2,1-f][1,2,4]triazine-4-carboxamide] | ≤ 40 nM | ≤ 40 nM
9 | O=C(N[C@H]1CC[C@@H](N2CCCC2)CC1)c1nc(-n2ccnc2)nn2cccc12 [Example 44, 2-(1H-imidazol-1-yl)-N-((1s,4s)-4-(pyrrolidin-1-yl)cyclohexyl)pyrrolo[2,1-f][1,2,4]triazine-4-carboxamide] | ≤ 40 nM | ≤ 1000 nM
10 | O=C(NC1CCOCC1)c1nc(-n2ccnc2)nc2ncccc12 [Example 3, 2-(1H-imidazol-1-yl)-N-(tetrahydro-2H-pyran-4-yl)pyrido[2,3-d]pyrimidine-4-carboxamide] | ≤ 40 nM | ≤ 40 nM
11 | CC(F)(F)CN[C@H]1CC[C@H](NC(=O)c2cn3ncnc3c(-n3ccnc3)n2)CC1 [Example 57, N-((1r,4r)-4-((2,2-difluoropropyl)amino)cyclohexyl)-8-(1H-imidazol-1-yl)-[1,2,4]triazolo[1,5-a]pyrazine-6-carboxamide] | ≤ 40 nM | ≤ 1000 nM
12 | CN(CC(F)(F)F)[C@H]1CC[C@H](NC(=O)c2cn3ncnc3c(-n3ccnc3)n2)CC1 [Example 47, 8-(1H-imidazol-1-yl)-N-((1r,4r)-4-(methyl (2,2,2-trifluoroethyl)amino)cyclohexyl)-[1,2,4]triazolo[1,5-a]pyrazine-6-carboxamide] | ≤ 40 nM | ≤ 100 nM
13 | O=C(N[C@H]1CC[C@H](N2CC[C@@H](O)C2)CC1)c1nc(-n2ccnc2)nn2cccc12 [Example 27, N-((1R,4r)-4-((R)-3-hydroxypyrrolidin-1-yl)cyclohexyl)-2-(1H-imidazol-1-yl)pyrrolo[2,1-f][1,2,4]triazine-4-carboxamide] | ≤ 40 nM | ≤ 40 nM
14 | O=C(N[C@H]1CC[C@H](NCC(F)(F)F)CC1)c1cc2cccnc2c(-c2cncs2)n1 [Example 7, 8-(thiazol-5-yl)-N-((1r,4r)-4-((2,2,2-trifluoroethyl)amino)cyclohexyl)-1,7-naphthyridine-6-carboxamide] | ≤ 40 nM | ≤ 1000 nM
15 | O=C(N[C@H]1CC[C@H](N2CC[C@@H](F)C2)CC1)c1cn2ccnc2c(-n2ccnc2)n1 [Example 39, N-((1R,4r)-4-((R)-3-fluoropyrrolidin-1-yl)cyclohexyl)-8-(1H-imidazol-1-yl) imidazo[1,2-a]pyrazine-6-carboxamide] | ≤ 40 nM | ≤ 100 nM
16 | O=C(N[C@H]1CC[C@H](NCC(F)(F)F)CC1)c1nc(-c2cncs2)cn2cccc12 [Example 5, 3-(thiazol-5-yl)-N-((1r,4r)-4-((2,2,2-trifluoroethyl)amino)cyclohexyl)pyrrolo[1,2-a]pyrazine-1-carboxamide] | ≤ 40 nM | ≤ 1000 nM
17 | CO[C@@H]1CCN([C@H]2CC[C@@H](NC(=O)c3cn4ncnc4c(-n4ccnc4)n3)CC2)C1 [Example 54, 8-(1H-imidazol-1-yl)-N-((1S,4s)-4-((R)-3-methoxypyrrolidin-1-yl)cyclohexyl)-[1,2,4]triazolo[1,5-a]pyrazine-6-carboxamide] | ≤ 40 nM | ≤ 1000 nM
18 | Cn1cncc1-c1nc(C(=O)N[C@H]2CC[C@H](NCC(F)(F)F)CC2)c2cccn2n1 [Example 17, 2-(1-methyl-1H-imidazol-5-yl)-N-((1r,4r)-4-((2,2,2-trifluoroethyl)amino)cyclohexyl)pyrrolo[2,1-f][1,2,4]triazine-4-carboxamide] | ≤ 40 nM | ≤ 40 nM
19 | O=C(NC1CCC2(CC1)CN(CC(F)(F)F)C2)c1nc(-n2ccnc2)nn2cccc12 [Example 8, 2-(1H-imidazol-1-yl)-N-(2-(2,2,2-trifluoroethyl)-2-azaspiro[3.5]nonan-7-yl)pyrrolo[2,1-f][1,2,4]triazine-4-carboxamide] | ≤ 40 nM | ≤ 40 nM
20 | O=C(NC1CCOCC1)c1nc(-n2ccnc2)cc2nccn12 [Example 1, 7-(1H-imidazol-1-yl)-N-(tetrahydro-2H-pyran-4-yl) imidazo[1,2-c]pyrimidine-5-carboxamide] | ≤ 40 nM | ≤ 100 nM
21 | O=C(N[C@H]1CC[C@H](N2CCCC2)CC1)c1nc(-n2ccnc2)nn2cccc12 [Example 43, 2-(1H-imidazol-1-yl)-N-((1r,4r)-4-(pyrrolidin-1-yl)cyclohexyl)pyrrolo[2,1-f][1,2,4]triazine-4-carboxamide] |  | ≤ 40 nM
22 | O=C(N[C@H]1CC[C@H](N2CCOCC2)CC1)c1cn2ncnc2c(-n2ccnc2)n1 [Example 49, 8-(1H-imidazol-1-yl)-N-((1r,4r)-4-morpholinocyclohexyl)-[1,2,4]triazolo[1,5-a]pyrazine-6-carboxamide] |  | ≤ 1000 nM
23 | O=C(N[C@H]1CC[C@H](N2CCC(F)(F)C2)CC1)c1cn2nccc2c(-n2ccnc2)n1 [Example 34, N-((1r,4r)-4-(3,3-difluoropyrrolidin-1-yl)cyclohexyl)-4-(1H-imidazol-1-yl)pyrazolo[1,5-a]pyrazine-6-carboxamide] |  | ≤ 1000 nM

From patent US20260224582A1, “Heterobicyclic amides as inhibitors of CD38” (Cerevance, Inc., priority 2022, published 2026)
